Where a SMILES comes first, the peptide text is derived from it. Bridges are numbered along the chain shown (N, C = ends).
Columns and labels:
Glucagon receptor [1] = biological target: T1, Glucagon receptor (Homo sapiens, UniProt P47871); assay: Agonist activity at human GCG receptor expressed in HEK293 cells assessed as increase in cAMP level after 5 hrs by CRE driven luciferase reporter gene assay; format: functional, cell-based
[2] = biological target: T2, Gastric inhibitory polypeptide receptor (Homo sapiens, UniProt P48546); assay: Agonist activity at human GIP receptor expressed in HEK293 cells assessed as increase in cAMP level after 5 hrs by CRE driven luciferase reporter gene assay; format: functional, cell-based
T2 sequence (P48546 whole entry): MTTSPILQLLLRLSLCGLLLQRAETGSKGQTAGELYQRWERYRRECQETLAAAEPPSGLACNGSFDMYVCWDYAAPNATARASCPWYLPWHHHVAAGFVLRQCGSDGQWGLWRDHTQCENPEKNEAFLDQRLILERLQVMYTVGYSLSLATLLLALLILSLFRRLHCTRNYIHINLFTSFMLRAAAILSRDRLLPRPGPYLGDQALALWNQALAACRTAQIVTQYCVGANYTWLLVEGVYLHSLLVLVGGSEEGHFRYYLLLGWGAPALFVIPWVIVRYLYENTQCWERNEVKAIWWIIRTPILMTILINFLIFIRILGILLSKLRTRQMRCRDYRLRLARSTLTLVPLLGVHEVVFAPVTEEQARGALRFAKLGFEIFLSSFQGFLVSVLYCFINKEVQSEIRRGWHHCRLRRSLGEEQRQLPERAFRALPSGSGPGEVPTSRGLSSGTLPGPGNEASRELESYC

[3] = biological target: T3, Glucagon-like peptide 1 receptor (Homo sapiens, UniProt P43220); assay: Agonist activity at human GLP1 receptor expressed in HEK293 cells assessed as increase in cAMP level after 5 hrs by CRE driven luciferase reporter gene assay relative to GLP1; format: functional, cell-based; parameters: concentration or dose not given beside the values
T3 sequence (P43220 whole entry): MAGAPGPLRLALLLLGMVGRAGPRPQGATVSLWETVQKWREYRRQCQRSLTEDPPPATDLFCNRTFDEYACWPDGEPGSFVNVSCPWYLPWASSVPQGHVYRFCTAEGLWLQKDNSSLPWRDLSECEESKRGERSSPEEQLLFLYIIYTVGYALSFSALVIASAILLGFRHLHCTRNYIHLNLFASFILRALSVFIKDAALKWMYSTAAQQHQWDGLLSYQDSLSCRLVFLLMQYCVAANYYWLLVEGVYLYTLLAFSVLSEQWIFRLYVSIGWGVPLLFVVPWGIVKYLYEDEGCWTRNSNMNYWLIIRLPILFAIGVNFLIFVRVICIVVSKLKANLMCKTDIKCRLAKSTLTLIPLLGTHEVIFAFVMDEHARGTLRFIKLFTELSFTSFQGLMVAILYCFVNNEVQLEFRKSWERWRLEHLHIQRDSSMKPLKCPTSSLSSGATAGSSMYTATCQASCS

[4] = biological target: T4, Gastric inhibitory polypeptide receptor (Homo sapiens) (UniProt P48546); assay: Agonist activity at human GIP receptor expressed in HEK293 cells assessed as increase in cAMP level after 5 hrs by CRE driven luciferase reporter gene assay relative to GIP; format: functional, cell-based; parameters: concentration or dose not given beside the values
T4 sequence (whole entry): T2 sequence (P48546 whole entry)

[5] = biological target: T3, Glucagon-like peptide 1 receptor; assay: Agonist activity at human GLP1 receptor expressed in HEK293 cells assessed as increase in cAMP level after 5 hrs by CRE driven luciferase reporter gene assay; format: functional, cell-based
Glucagon receptor [6] = biological target: T1, Glucagon receptor; assay: Agonist activity at human GCG receptor expressed in HEK293 cells assessed as increase in cAMP level after 5 hrs by CRE driven luciferase reporter gene assay relative to glucagon; format: functional, cell-based
Glucagon receptor [7] = biological target: T1, Glucagon receptor; assay: Agonist activity at human GCG receptor expressed in CHO cells assessed as increase in cAMP level by TR-FRET assay relative to glucagon; format: functional, cell-based
[8] = biological target: T5, Glucagon-like peptide 1 receptor (Mus musculus, UniProt O35659); assay: Agonist activity at mouse GLP1 receptor expressed in CHO cells assessed as increase in cAMP level by TR-FRET assay; format: functional, cell-based
T5 sequence (O35659 whole entry): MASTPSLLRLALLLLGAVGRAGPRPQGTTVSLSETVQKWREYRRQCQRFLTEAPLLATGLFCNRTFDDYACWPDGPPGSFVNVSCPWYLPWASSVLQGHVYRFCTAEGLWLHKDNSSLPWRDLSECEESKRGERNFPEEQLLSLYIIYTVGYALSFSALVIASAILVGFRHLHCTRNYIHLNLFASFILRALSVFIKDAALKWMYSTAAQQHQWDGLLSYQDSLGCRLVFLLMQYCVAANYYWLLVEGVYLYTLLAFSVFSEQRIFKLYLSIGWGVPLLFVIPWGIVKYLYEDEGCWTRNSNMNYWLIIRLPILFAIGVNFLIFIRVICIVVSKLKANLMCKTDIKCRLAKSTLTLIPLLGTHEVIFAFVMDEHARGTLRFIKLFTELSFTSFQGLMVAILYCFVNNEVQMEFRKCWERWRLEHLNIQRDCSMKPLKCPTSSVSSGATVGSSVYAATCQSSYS

[9] = biological target: T3, Glucagon-like peptide 1 receptor; assay: Agonist activity at human GLP1 receptor expressed in CHO cells assessed as increase in cAMP level by TR-FRET assay; format: functional, cell-based
Glucagon receptor [10] = biological target: Glucagon receptor (Mus musculus, UniProt Q61606); assay: Agonist activity at mouse GCG receptor expressed in CHO cells assessed as increase in cAMP level by TR-FRET assay; format: functional, cell-based
Glucagon receptor (Mus musculus, UniProt Q61606), sequence (Q61606 whole entry): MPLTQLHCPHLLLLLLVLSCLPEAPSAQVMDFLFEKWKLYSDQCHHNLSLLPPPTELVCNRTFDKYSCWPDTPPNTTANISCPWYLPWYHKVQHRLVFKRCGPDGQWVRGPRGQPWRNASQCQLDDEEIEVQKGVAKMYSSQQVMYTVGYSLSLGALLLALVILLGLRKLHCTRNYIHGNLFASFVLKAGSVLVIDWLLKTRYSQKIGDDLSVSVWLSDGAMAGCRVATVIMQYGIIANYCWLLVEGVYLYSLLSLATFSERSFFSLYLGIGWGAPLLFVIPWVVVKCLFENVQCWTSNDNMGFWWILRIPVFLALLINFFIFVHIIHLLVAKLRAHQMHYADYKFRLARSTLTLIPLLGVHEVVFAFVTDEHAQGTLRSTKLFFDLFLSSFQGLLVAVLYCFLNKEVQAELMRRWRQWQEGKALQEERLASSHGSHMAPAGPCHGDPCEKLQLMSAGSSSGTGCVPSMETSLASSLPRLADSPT

Mus musculus = species on record: Mus musculus; assay: Selectivity ratio of EC50 for mouse GLP1 receptor to EC50 for mouse GCG receptor
Glucagon receptor [11] = biological target: T1, Glucagon receptor; assay: Agonist activity at human GCG receptor expressed in CHO cells assessed as increase in cAMP level by TR-FRET assay; format: functional, cell-based

T1 sequence (P47871 whole entry): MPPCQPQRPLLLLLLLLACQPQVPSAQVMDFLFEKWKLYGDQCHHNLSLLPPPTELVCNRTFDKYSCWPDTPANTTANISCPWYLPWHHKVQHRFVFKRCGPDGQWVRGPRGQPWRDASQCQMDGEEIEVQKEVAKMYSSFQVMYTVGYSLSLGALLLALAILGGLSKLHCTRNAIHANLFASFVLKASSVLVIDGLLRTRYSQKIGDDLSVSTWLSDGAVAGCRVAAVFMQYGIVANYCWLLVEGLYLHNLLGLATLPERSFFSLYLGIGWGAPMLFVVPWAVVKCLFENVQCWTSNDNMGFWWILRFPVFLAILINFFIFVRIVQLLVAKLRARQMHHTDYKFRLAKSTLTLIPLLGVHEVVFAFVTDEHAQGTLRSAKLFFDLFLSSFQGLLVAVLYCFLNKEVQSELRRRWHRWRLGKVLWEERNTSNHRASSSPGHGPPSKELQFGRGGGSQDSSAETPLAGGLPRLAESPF

SMILES	EC50 (Glucagon receptor [1]) [nM]	EC50 [2] [nM]	Activity [3] [%]	Activity [4] [%]	EC50 [5] [nM]	Activity (Glucagon receptor [6]) [%]	Activity (Glucagon receptor [7]) [%]	EC50 [8] [nM]	EC50 [9] [nM]	EC50 (Glucagon receptor [10]) [nM]	Ratio EC50 (Mus musculus)	EC50 (Glucagon receptor [11]) [nM]
CC[C@H](C)[C@H](NC(=O)[C@H](Cc1ccccc1)NC(=O)[C@H](CCC(=O)O)NC(=O)[C@@H]1CCCCNC(=O)CC[C@H](NC(=O)[C@H](CC(=O)O)NC(=O)[C@H](CC(C)C)NC(=O)[C@H](Cc2ccc(O)cc2)NC(=O)[C@H](CCCCN)NC(=O)[C@H](CO)NC(=O)[C@H](Cc2ccc(O)cc2)NC(=O)[C@H](CC(=O)O)NC(=O)[C@H](CO)NC(=O)[C@@H](NC(=O)[C@H](Cc2ccccc2)NC(=O)[C@@H](NC(=O)CNC(=O)[C@H](CCC(N)=O)NC(=O)[C@H](CO)NC(=O)[C@@H](N)Cc2cnc[nH]2)[C@@H](C)O)[C@@H](C)O)C(=O)N[C@@H](CCC(N)=O)C(=O)N[C@@H](C)C(=O)N[C@@H](C)C(=O)N1)C(=O)N[C@@H](C)C(=O)N[C@@H](Cc1c[nH]c2ccccc12)C(=O)N[C@@H](CC(C)C)C(=O)N[C@@H](CCSC)C(=O)N[C@@H](CC(N)=O)C(=O)N[C@H](C(N)=O)[C@@H](C)O (H-HSQGTFTSDYSKYLDEQAAKEFIAWLMNT-NH2; lactam 16-20)	0.03	6.26	126	0	0.02	104						
CCCCCCCCCCCCCCCC(=O)N[C@@H](CCC(=O)NCCCC[C@H](NC(=O)[C@H](CC(=O)O)NC(=O)[C@H](CO)NC(=O)[C@@H](NC(=O)[C@H](Cc1ccccc1)NC(=O)[C@@H](NC(=O)CNC(=O)[C@H](CCC(N)=O)NC(=O)C(C)(C)NC(=O)[C@@H](N)Cc1cnc[nH]1)[C@@H](C)O)[C@@H](C)O)C(=O)N[C@@H](CO)C(=O)N[C@@H](CCCCN)C(=O)N[C@@H](Cc1ccc(O)cc1)C(=O)N[C@@H](CC(C)C)C(=O)N[C@@H](CC(=O)O)C(=O)NC(C)(C)C(=O)N[C@@H](CCCNC(=N)N)C(=O)N[C@@H](C)C(=O)N[C@@H](C)C(=O)N[C@@H](CCC(N)=O)C(=O)N[C@@H](CC(=O)O)C(=O)N[C@@H](Cc1ccccc1)C(=O)N[C@H](C(=O)N[C@@H](CCC(N)=O)C(=O)N[C@@H](Cc1c[nH]c2ccccc12)C(=O)N[C@@H](CC(C)C)C(=O)N[C@@H](CCSC)C(=O)N[C@@H](CC(=O)O)C(=O)N[C@H](C(N)=O)[C@@H](C)O)C(C)C)C(=O)O	0.028	2.19	187	1	0.015	114						
CC[C@H](C)[C@H](NC(=O)[C@H](Cc1ccccc1)NC(=O)[C@H](CCC(=O)O)NC(=O)[C@H](CCCCN)NC(=O)[C@H](C)NC(=O)[C@H](C)NC(=O)[C@H](CCC(N)=O)NC(=O)[C@H](CCC(=O)O)NC(=O)[C@H](CC(=O)O)NC(=O)[C@H](CC(C)C)NC(=O)[C@H](Cc1ccc(O)cc1)NC(=O)[C@H](CCCCN)NC(=O)[C@H](CO)NC(=O)[C@H](Cc1ccc(O)cc1)NC(=O)[C@H](CC(=O)O)NC(=O)[C@H](CO)NC(=O)[C@@H](NC(=O)[C@H](Cc1ccccc1)NC(=O)[C@@H](NC(=O)CNC(=O)[C@H](CCC(N)=O)NC(=O)[C@H](CO)NC(=O)[C@@H](N)Cc1cnc[nH]1)[C@@H](C)O)[C@@H](C)O)C(=O)N[C@@H](C)C(=O)N[C@@H](Cc1c[nH]c2ccccc12)C(=O)N[C@@H](CC(C)C)C(=O)N[C@@H](CCSC)C(=O)N[C@@H](CC(N)=O)C(=O)N[C@H](C(N)=O)[C@@H](C)O (H-HSQGTFTSDYSKYLDEQAAKEFIAWLMNT-NH2)	0.031	6.26	127	0	0.022	103						
CCCCCCCCCCCCCCCC(=O)N[C@@H](CCC(=O)NCCCC[C@H](NC(=O)[C@H](CC(=O)O)NC(=O)[C@H](CO)NC(=O)[C@@H](NC(=O)[C@H](Cc1ccccc1)NC(=O)[C@@H](NC(=O)CNC(=O)[C@H](CCC(N)=O)NC(=O)[C@@H](CO)NC(=O)[C@@H](N)Cc1cnc[nH]1)[C@@H](C)O)[C@@H](C)O)C(=O)N[C@@H](CO)C(=O)N[C@@H](CCCCN)C(=O)N[C@@H](Cc1ccc(O)cc1)C(=O)N[C@@H](CC(C)C)C(=O)N[C@@H](CC(=O)O)C(=O)N[C@@H](CCC(=O)O)C(=O)N[C@@H](CCCNC(=N)N)C(=O)N[C@@H](C)C(=O)N[C@@H](C)C(=O)N[C@@H](CCC(N)=O)C(=O)N[C@@H](CC(=O)O)C(=O)N[C@@H](Cc1ccccc1)C(=O)N[C@H](C(=O)N[C@@H](CCC(N)=O)C(=O)N[C@@H](Cc1c[nH]c2ccccc12)C(=O)N[C@@H](CC(C)C)C(=O)N[C@@H](CC(C)C)C(=O)N[C@@H](CC(=O)O)C(=O)N[C@H](C(N)=O)[C@@H](C)O)C(C)C)C(=O)O	0.006	1.65	933	1	0.003	533						
CC[C@H](C)[C@H](NC(=O)[C@H](Cc1ccccc1)NC(=O)[C@H](CCC(=O)O)NC(=O)[C@H](CCCCN)NC(=O)[C@H](C)NC(=O)[C@H](C)NC(=O)[C@H](CCC(N)=O)NC(=O)[C@H](CCC(=O)O)NC(=O)[C@H](CC(=O)O)NC(=O)[C@H](CC(C)C)NC(=O)[C@H](Cc1ccc(O)cc1)NC(=O)[C@H](CCCCN)NC(=O)[C@H](CO)NC(=O)[C@H](Cc1ccc(O)cc1)NC(=O)[C@H](CC(=O)O)NC(=O)[C@H](CO)NC(=O)[C@@H](NC(=O)[C@H](Cc1ccccc1)NC(=O)[C@@H](NC(=O)CNC(=O)[C@H](CCC(=O)O)NC(=O)[C@H](CO)NC(=O)[C@@H](N)Cc1cnc[nH]1)[C@@H](C)O)[C@@H](C)O)C(=O)N[C@@H](C)C(=O)N[C@@H](Cc1c[nH]c2ccccc12)C(=O)N[C@@H](CC(C)C)C(=O)N[C@@H](CCSC)C(=O)N[C@@H](CC(N)=O)C(=O)N[C@H](C(N)=O)[C@@H](C)O (H-HSEGTFTSDYSKYLDEQAAKEFIAWLMNT-NH2)	5.22	0.867	93	2	0.03	1						
CC[C@H](C)[C@H](NC(=O)[C@H](Cc1ccccc1)NC(=O)[C@H](CCC(=O)O)NC(=O)[C@H](CCCCN)NC(=O)[C@H](C)NC(=O)[C@H](C)NC(=O)[C@H](CCC(N)=O)NC(=O)CNC(=O)[C@H](CCC(=O)O)NC(=O)[C@H](CC(C)C)NC(=O)[C@H](Cc1ccc(O)cc1)NC(=O)[C@H](CCCCN)NC(=O)[C@H](CO)NC(=O)[C@@H](NC(=O)[C@H](CC(=O)O)NC(=O)[C@H](CO)NC(=O)[C@@H](NC(=O)[C@H](Cc1ccccc1)NC(=O)[C@@H](NC(=O)CNC(=O)[C@H](CCC(=O)O)NC(=O)[C@H](C)NC(=O)[C@@H](N)Cc1cnc[nH]1)[C@@H](C)O)[C@@H](C)O)C(C)C)C(=O)N[C@@H](C)C(=O)N[C@@H](Cc1c[nH]c2ccccc12)C(=O)N[C@@H](CC(C)C)C(=O)N[C@H](C(=O)N[C@@H](CCCCN)C(=O)NCC(=O)N[C@@H](CCCNC(=N)N)C(N)=O)C(C)C							< 0.05	0.03	0.09	> 100	< 0.001	> 1000
CCCCCCCCCCCCCCCC(=O)N[C@@H](CCC(=O)NCCCC[C@H](NC(=O)[C@H](CC(=O)O)NC(=O)[C@H](CO)NC(=O)[C@@H](NC(=O)[C@H](Cc1ccccc1)NC(=O)[C@@H](NC(=O)CNC(=O)[C@H](CCC(N)=O)NC(=O)[C@@H](CO)NC(=O)[C@@H](N)Cc1cnc[nH]1)[C@@H](C)O)[C@@H](C)O)C(=O)N[C@@H](CO)C(=O)N[C@@H](CCCCN)C(=O)N[C@@H](Cc1ccc(O)cc1)C(=O)N[C@@H](CC(C)C)C(=O)N[C@@H](CC(=O)O)C(=O)N[C@@H](CCC(=O)O)C(=O)N[C@@H](CCC(N)=O)C(=O)N[C@@H](C)C(=O)N[C@@H](C)C(=O)N[C@@H](CCCCN)C(=O)N[C@@H](CCC(=O)O)C(=O)N[C@@H](Cc1ccccc1)C(=O)N[C@H](C(=O)N[C@@H](C)C(=O)N[C@@H](Cc1c[nH]c2ccccc12)C(=O)N[C@@H](CC(C)C)C(=O)N[C@@H](CCSC)C(=O)N[C@@H](CC(N)=O)C(=O)N[C@H](C(N)=O)[C@@H](C)O)[C@@H](C)CC)C(=O)O	0.041	2.69	72	1	0.039	78						

— ChEMBL document CHEMBL4219047, “Optimization of peptide-based polyagonists for treatment of diabetes and obesity” (Bioorg Med Chem, 2018)
